Laboratory results taken from patent US20130202653A1, “3-ARYL-3-HYDROXY-2-AMINO-PROPIONIC ACID AMIDES, 3-HETEROARYL-3-HYDROXY-2-AMINOPROPIONIC ACID AMIDES AND RELATED COMPOUNDS HAVING ANALGESIC AND/OR IMMUNO STIMULANT ACTIVITY” (Allergan, Inc., priority 2005, published 2013).
Counter-ions that a name gives are not always drawn.

Test system: tactile allodynia in the rat Chung model
Assay: Chung model: reversal of tactile allodynia (von Frey hairs) after spinal nerve ligation
Type: in vivo
Conditions: 300 μg/kg IP, peak at 30 min post dose, hydrochloride
Text: An art-accepted model or assay for measuring an analgesic effect of a compound in chronic pain (in particular peripheral neuropathy) is the model known as Kim and Chung 1992, Pain […], pp 355-363 (Chung model). This model involves the surgical ligation of the L5 (and optionally the L6) spinal nerves on one side in experimental animals. Rats recovering from the surgery gain weight and display a level of general activity similar to that of normal rats. However, these rats develop abnormalities of the foot, wherein the hindpaw is moderately everted and the toes are held together. More importantly, the hindpaw on the side affected by the surgery appears to become sensitive to low-threshold mechanical stimuli and will perceive pain instead of the faint sensation of touch. This sensitivity to normally non-painful touch, called “tactile allodynia”, develops within the first week after surgery and lasts for at least two months. The allodynia response includes lifting the affected hindpaw to escape from the stimulus, licking the paw and holding it in the air for many seconds. None of these responses is normally seen in the control group.
To produce the tactile allodynia, rats are anesthetized before surgery. The surgical site is shaved and prepared either with betadine or Novacaine. Incision is made from the thoracic vertebra X111 down toward the sacrum. Muscle tissue is separated from the spinal vertebra (left side) at the L4-S2 levels. The L6 vertebra is located and the transverse process is carefully removed with a small rongeur to expose the L4-L6 spinal nerves. The L5 and L6 spinal nerves are isolated and tightly ligated with 6-0 silk thread. The same procedure is done on the right side as a control, except no ligation of the spinal nerves is performed.
After a complete hemostasis is confirmed, the wounds are sutured. A small amount of antibiotic ointment is applied to the incised area, and the rat is transferred to the recovery plastic cage under a regulated heat-temperature lamp.
On the day of the experiment, at least seven days after the surgery, typically six rats per test group are administered the test drugs by intraperitoneal (i.p.) injection or oral gavage (p.o.). For i.p. administration, the compounds are formulated in H2O and given in a volume of 1 ml/kg body weight by injecting into the intraperitoneal cavity. For p.o. administration, the compounds are formulated in H2O and given in a volume of 1 ml/kg body weight using an 18-gauge, 3 inch gavage needle that is slowly inserted through the esophagus into the stomach.
Tactile allodynia is assessed via von Frey hairs, which are a series of fine hairs with incremental differences in stiffness. Rats are placed in a plastic cage with a wire mesh bottom and allowed to acclimate for approximately 30 minutes. To establish the pre-drug baseline, the von Frey hairs are applied perpendicularly through the mesh to the mid-plantar region of the rats' hindpaw with sufficient force to cause slight buckling and held for 6-8 seconds. The applied force has been calculated to range from 0.41 to 15.1 grams. If the paw is sharply withdrawn, it is considered a positive response. A normal animal will not respond to stimuli in this range, but a surgically ligated paw will be withdrawn in response to a 1-2 gram hair. The 50% paw withdrawal threshold is determined using the method of Dixon, W. J., Ann. Rev. Pharmacol. Toxicol. 20:441-462 (1980) hereby incorporated by reference. Tactile allodynia is measured prior to and 15, 30, and 60 minutes after drug administration. The post-drug threshold is compared to the pre-drug threshold and the percent reversal of tactile sensitivity is calculated based on a normal threshold of 15.1 grams.
Table 1 below indicates the degree of pain reversal obtained in the Chung model with exemplary compounds of the invention. […]

Row | Compound | Peak % Pain reversal: time post dose [% 30 min]
1 | NC(C(=O)N1CCCC1)C(O)c1ccsc1 (single isomer, unassigned; (-)) [Compound 206, (−)-threo-2-Amino-3-hydroxy-1-(pyrrolidin-1-yl)-3-(thiophen-3-yl)propan-1-one hydrochloride] | 67

Same assay, conditions: Rattus norvegicus, ip, 0.5 h, 300 μg/kg IP, peak at 30 min post dose, read-out: Peak % Pain reversal: time post dose

Row | Compound | inhibition in vivo at 0.3 mg/kg [%]
2 | O=C([C@H](NCc1cccc(I)c1)[C@@H](O)c1ccncc1)N1CCCC1 (racemic) [Compound 227, (±)-threo-2-(3-iodobenzylamino)-3-hydroxy-3-(pyridin-4-yl)-1-(pyrrolidin-1-yl)-propan-1-one dihydrochloride] | 95
3 | N[C@@H](C(=O)N1CCOCC1)[C@@H](O)c1ccsc1 (racemic) [Compound 230, (±)-threo-2-Amino-3-hydroxy-1-morpholino-3-(thiophen-3-yl)propan-1-one hydrochloride] | 52
4 | C[C@@](O)(c1ccncc1)[C@@H](N)C(=O)N1CCCC1 (racemic) [Compound 239, (±)-erythro-2-Amino-3-hydroxy-3-(pyridin-4-yl)-1-(pyrrolidin-1-yl)butan-1-one dihydrochloride] | 75
5 | NC(C(=O)N1CCCC1)C(O)c1ccsc1 (single isomer, unassigned; (+)) [Compound 205, (+)-threo-2-Amino-3-hydroxy-1-(pyrrolidin-1-yl)-3-(thiophen-3-yl)propan-1-one hydrochloride] | 62

Same assay, conditions: Rattus norvegicus, ip, 1 h, 30 μg/kg IP, peak at 60 min post dose, read-out: Peak % Pain reversal: time post dose

Row | Compound | inhibition in vivo at 0.03 mg/kg [%]
6 | N[C@@H](C(=O)N1CCCC1)[C@H](O)c1ccncc1 (racemic) [Compound 219, (±)-erythro-2-amino-3-hydroxy-3-(pyridin-4-yl)-1-(pyrrolidin-1-yl)propan-1-one dihydrochloride] | 82
7 | NC(C(=O)N1CC[C@H](F)C1)C(O)c1ccncc1 (single isomer, unassigned; (-)) [Compound 248, dihydrochloride] | 59

Same assay, conditions: Rattus norvegicus, ip, 1 h, 300 μg/kg IP, peak at 60 min post dose, read-out: Peak % Pain reversal: time post dose

Row | Compound | inhibition in vivo at 0.3 mg/kg [%]
8 | CC(C)(C)OC(=O)N[C@@H](C(=O)N1CCCC1)[C@@H](O)c1ccncc1 (racemic) [Compound 218, tert-butyl(±)-threo-1-hydroxy-3-oxo-1-(pyridin-4-yl)-3-(pyrrolidin-1-yl)propan-2-ylcarbamate hydrochloride] | 32
9 | NC(C(=O)N1CCCC1)C(=NO)c1ccncc1 (racemic) [Compound 224, (±)-2-Amino-3-(hydroxyimino)-3-(pyridin-4-yl)-1-(pyrrolidin-1-yl)propan-1-one dihydrochloride] | 51
10 | O=C([C@H](NCc1ccccc1I)[C@@H](O)c1ccncc1)N1CCCC1 (racemic) [Compound 226, (±)-threo-2-(2-iodobenzylamino)-3-hydroxy-3-(pyridin-4-yl)-1-(pyrrolidin-1-yl)-propan-1-one dihydrochloride] | 95
11 | N[C@@H](C(=O)N1CCOCC1)[C@@H](O)c1cccnc1 (racemic) [Compound 232, (±)-threo-2-Amino-3-hydroxy-1-morpholino-3-(pyridin-3-yl)propan-1-one dihydrochloride] | 80
12 | NCCCCCC(=O)N[C@@H](C(=O)N1CCCC1)[C@@H](O)c1ccncc1 (racemic) [Compound 238, 6-amino-N-((±)-threo-1-hydroxy-3-oxo-1-(pyridin-4-yl)-3-(pyrrolidin-1-yl)propan-2-yl)hexanamide] | 61
13 | Cn1ccnc1[C@H](O)[C@@H](N)C(=O)N1CCCC1 (racemic) [Compound 254, (±)-threo-2-Amino-3-hydroxy-3-(1-methyl-1H-imidazol-2-yl)-1-(pyrrolidin-1-yl)propan-1-one dihydrochloride] | 62
14 | NC(C(=O)N1CCCC1)C(O)c1cccnc1 (single isomer, unassigned; (-)) [Compound 207, (−)-threo-2-Amino-3-hydroxy-3-(pyridin-3-yl)-1-(pyrrolidin-1-yl)propan-1-one dihydrochloride] | 96
